Experiments:
[1] = tested on: HIV-1; experiment: In vitro protein binding-adjusted 95% effective concentration (paEC95) and inhibitory quotient; format: cell-based
[2] = tested on: HIV; details: twice-yearly SC 927 mg (two 1.5 mL injections of 309 mg/mL), oral loading 600 mg days 1 and 2; cited from earlier work
[3] = in vivo, sc; cited from earlier work
[4] = cited from earlier work

CC(C)(C#Cc1ccc(-c2ccc(Cl)c3c(NS(C)(=O)=O)nn(CC(F)(F)F)c23)c([C@H](Cc2cc(F)cc(F)c2)NC(=O)Cn2nc(C(F)(F)F)c3c2C(F)(F)[C@@H]2C[C@H]32)n1)S(C)(=O)=O [lenacapavir]
in vitro paEC95 (protein binding-adjusted 95% effective concentration) [1]: 3.87 ng/mL | inhibitory quotient-4 (IQ4; 4-fold in-vitro protein binding-adjusted 95% effective concentration) ([1]; plasma concentration threshold): 15.5 ng/mL | efficacy in cisgender men and gender-diverse people [2]: 99.9% | efficacy in cisgender women [2]: 100% | highest observed mean concentration [3]: 72.1 ng/mL | systemic lenacapavir exposures relative to those achieved with the intramuscular formulations ([4]; observed previously, well tolerated): approximately 3 fold | mean Cmax ([4]; supratherapeutic total dose of 9600 mg of oral lenacapavir): 1070.4 ng/mL

Source: patent US20260014130A1, “FORMULATIONS OF CAPSID INHIBITOR” (Gilead Sciences, Inc., priority 2024, published 2026)
